In article PMC4783973, “Synthetic Human TLR9-LRR11 Peptide Attenuates TLR9 Signaling by Binding to and thus Decreasing Internalization of CpG Oligodeoxynucleotides” (International Journal of Molecular Sciences, 2016):
Where two headings read alike, the source gives them in different places.

How the values were obtained:
[1] = system: RAW264.7 cells; assay: TNF-α and IL-6 release from RAW264.7 cells, both cytokines stated together (ELISA); type: cell-based, mouse; details: for effect on TNF-α and IL-6 release (CpG ODN stimulation): CpG ODN 1.5 μM, 6 h, n = 4 (Figure 1)
Description: Figure 1 Synthetic peptide (SP) decreased TNF-α and IL-6 release from RAW264.7 cells treated with CpG oligodeoxynucleotides (CpG ODN). RAW264.7 cells (4.0 × 10^5 cells) grown in 48-well plates were treated with 1.5 μM of ODN2006 or ODN107 preincubated with SP (0, 0.5, 1.5, or 4.5 μM) or unrelated peptide (URP) (4.5 μM) at 37 °C for 15 min. After incubation for 6 h, the supernatants were collected to detect TNF-α (A) and IL-6 (B) using enzyme-linked immunosorbent assay (ELISA) kits. Data from one of three independent experiments are shown (n = 4). “*”, p < 0.05 vs. ODN2006 or ODN107; “**”, p < 0.01 vs. ODN2006 or ODN107; “#”, p > 0.05 vs. ODN2006 or ODN107.
(§1) Experiments were performed as described in Figure 1. The concentrations of ODN2006, LPS, PAM3 and SP were 1.5 μM, 20 ng/mL, 5 μg/mL and 1.5 μM, respectively. Data from one of three independent experiments are shown (n = 3).
(§2) The RAW264.7 cell line was purchased from American Type Culture Collection (ATCC, Manassas, VA, USA). Cells were cultured in DMEM (high glucose) medium containing 10% FCS in a 37 °C humidified atmosphere with 5% CO2. Cells diluted with 0.4% trypan blue in phosphate-buffered saline (PBS, 0.1 mM, pH 7.2–7.4) were counted using a hemocytometer.
(§3) RAW264.7 cells (4.0 × 10^5 cells) were incubated in 48-well plates for 4 h, and supernatants were replaced with 0.4 mL of serum-free DMEM medium containing 1.5 μM of ODN2006 or ODN107, which had been preincubated with 0, 0.5, 1.5 or 4.5 μM of SP or 4.5 μM of URP at 37 °C for 15 min. After incubation for 6 h, the supernatants were collected to detect TNF-α and IL-6 concentrations using corresponding ELISA kits (eBioscience).

[2] = system: NF-κB p65 subunit; assay: NF-κB activity assay, p65 subunit in nuclear extract of RAW264.7 cells (Trans^AM ELISA); type: cell-based; details: CpG ODN 1.5 μM; 4 h; n = 3
Description: Figure 3 Synthetic peptide (SP) inhibited NF-κB activation induced by CpG oligodeoxynucleotides (CpG ODN) in RAW264.7 cells. RAW264.7 cells (5.0 × 10^6 cells) grown in six-well plates were treated with 1.5 μM of ODN2006 (A) or ODN107 (B) preincubated with SP (0, 0.5, 1.5, or 4.5 μM) or unrelated peptide (URP) (4.5 μM) at 37 °C for 15 min. After incubation for 4 h, the cells were collected to extract nuclear proteins. The p65 subunit was detected using enzyme-linked immunosorbent assay (ELISA) kits. Data from one of three independent experiments are shown (n = 3). “*”, p < 0.05 vs. ODN2006 or ODN107; “**”, p < 0.01 vs. ODN2006 or ODN107; “#”, p > 0.05 vs. ODN2006 or ODN107.
as §2
RAW264.7 cells (5.0 × 10^6 cells) were placed in six-well plates for 4 h, and the supernatants were then replaced with fresh medium containing 1.5 μM of ODN2006 or ODN107 that had been preincubated with SP (0, 0.5, 1.5, or 4.5 μM) or URP (4.5 μM) at 37 °C for 15 min. After incubation for 4 h, the cells were collected to extract nuclear proteins. Equal amounts of each sample were used to detect the DNA binding activity of the NF-κB p65 subunit using Trans^AM NF-κB ELISA kits (Active Motif), according to the manufacturer’s instructions.

[3] = system: IκBα; assay: IκBα degradation and phosphorylation in RAW264.7 cells (western blotting); type: cell-based; details: ODN2006 1.5 μM; 4 h
Description: Figure 4 Synthetic peptide (SP) decreased the phosphorylation of IκBα and ERK1/2 in RAW264.7 cells treated with CpG oligodeoxynucleotides (CpG ODN). RAW264.7 cells (1.0 × 10^7 cells) grown in 10-cm dishes were treated with 1.5 μM of ODN2006 (A) or ODN107 (B) pre-incubated with SP (0, 0.5, 1.5, or 4.5 μM) at 37 °C for 15 min. After incubation for 4 h, cells were harvested to extract total protein; and the protein expressions of IκBα, phosphorylated (p)-IκBα, ERK1/2 and p-ERK1/2 were detected by western blotting. Data from one of three independent experiments are shown.
as §2
RAW264.7cells (1.0 × 10^7 cells) were incubated in dishes for 4 h, and the supernatants were replaced with fresh medium containing 1.5 μM of ODN2006 that had been preincubated with 0.5, 1.5 or 4.5 μM of SP for 15 min. Cells were sequentially cultured for another 4 h and then harvested to extract total proteins. Equal amounts of proteins from each treatment were separated by SDS-PAGE, and transferred onto 0.22 μm PVDF membranes (Bio-Rad). […]

[4] = system: RAW264.7 cells; assay: competitive internalization experiment with non-labeled ODN2006, confocal; type: cell-based; details: SP 1.5 μM, FAM-2006 1.5 μM, 30 min, n = 100
Description: However, the results could not exclude the possibility that SP might act on FAM not ODN2006 itself. Therefore, a competitive internalization experiment using non-labeled ODN2006 was performed. Non-labeled ODN2006 and FAM-2006 have same ability to bind SP, but FAM had no such ability. If SP specifically acted on ODN2006, non-labeled ODN2006 might increase FAM-2006 internalization, and the intracellular fluorescence intensity would increase. […] Therefore, FAM-2006 could completely enter the cells, resulting in a subsequent increase in intracellular fluorescence.
Figure 7 Non-labeled ODN2006 restored internalization of FAM-labeled ODN2006 preincubated with synthetic peptide (SP) (Scale bar = 20 μm). […] The intracellular FAM-2006 (green) (A), mean fluorescence intensity (MFI) values (B) and the percentages of cells with FAM-2006 dots (green fluorescence) (C) were observed as described in Figure 5 (n = 100). […]
RAW264.7 cells (1.0 × 10^6 cells) were grown on 2-cm glass bottom dishes for 4 h, and supernatants were replaced with 1 mL of serum-free DMEM medium containing FAM-2006 (1.5 μM) that had been pre-incubated with SP (0, 0.5, 1.5 or 4.5 μM) at 37 °C for 15 min. […] The intracellular FAM-2006 (green fluorescence) was observed using a laser confocal microscope. Mean fluorescence intensity (MFI) values were calculated by the ZEN lite 2012 software.

[5] = system: CpG ODN-induced cytokine release; details: ref [19],[20]; cited from earlier work
Text: CpG ODN-induced diseases, such as sepsis and some autoimmune disorders, are triggered by uncontrolled release of proinflammatory cytokines, e.g., TNF-α and IL-6 [18]. […] Herein, we firstly evaluated the inhibitory effect of SP on CpG ODN-induced cytokine release in the cellular tests. Tw ... || NF-κB is one of the most important inflammatory switches that comprise a series of transcription factors that regulate the expressions of various proinflammatory cytokines (IL-1, IL-6, IL-8 and TNF-α). NF-κB activation is depended on the degradation and phosphorylation of IκBα [12].

[6] = system: TLR signaling; details: inhibitors of clathrin-mediated phagocytosis; ref [24]; cited from earlier work
Text: (§4) CpG ODN must be internalized within cells before activating TLR9 signaling and inducing cytokines release. Thus, interfering with CpG ODN internalization probably leads to reduced activation of TLR9 signaling.

[7] = cited from earlier work
Text: as §4

[8] = system: PAM3/TLR1/TLR2; assay: PAM3CSK4 (TLR1/2)-induced TNF-α and IL-6 release from RAW264.7 cells (ELISA); type: cell-based, mouse; details: PAM3 5 μg/mL; n = 3 (Figure 2)
Description: as §1, §2, §3

[9] = system: LPS/TLR4; assay: LPS (TLR4)-induced TNF-α and IL-6 release from RAW264.7 cells (ELISA); type: cell-based, mouse; details: LPS 20 ng/mL; n = 3 (Figure 2)
Description: as §1, §2, §3

Compound: 5′-TCGTCGTTTTGTCGTTTTGTCGTT-3′ [ODN2006]
- effect on TNF-α and IL-6 release (CpG ODN stimulation) [1]: significantly increased
- effect on TNF-α and IL-6 release (stimulation) ([1]; ODN2006 1.5 μM, n = 3 (Figure 2)): significantly increased
- effect on activation of p65 (CpG ODN stimulation) [2]: significantly increased
- levels of IκBα phosphorylation and degradation (CpG ODN stimulation) [3]: significantly increased
- MFI and percentage of cells with green fluorescence (FAM-2006 + SP, competition) ([4]; non-labeled ODN2006 0, 0.5, 1.5 or 4.5 μM, dose-dependent): increased the MFI and the percentage of cells with green fluorescence
- restoration of FAM-2006 internalization (competition) ([4]; non-labeled ODN2006 4.5 μM): completely restore cell internalization of FAM-2006

Compound: 5′-TGGCGCGGGCGG-3′ (DNA, all phosphorothioate, methylation of C not given here) [ODN107, a stimulatory CpG ODN developed in our laboratory]
- effect on TNF-α and IL-6 release (CpG ODN stimulation) [1]: significantly increased
- effect on activation of p65 (CpG ODN stimulation) [2]: significantly increased

Compound: CCN(CC)CCCC(C)Nc1ccnc2cc(Cl)ccc12 (stereo not shown) [chloroquine]
- effect on CpG ODN-induced cytokine release [5]: inhibitors of CpG ODN-induced cytokine release
- effect on proinflammatory cytokines [5]: inhibited proinflammatory cytokines

Compound: O=C(N/N=C/c1ccc(O)c(O)c1)c1cc2ccccc2cc1O [dynasore]
- effect on TLR signaling [6]: significant inhibitory effects on TLR signaling
- cell toxicity ([7]; ref [24]): distinct cell toxicity

Compound: CN(C)c1cccc2c(S(=O)(=O)NCCCCCN)cccc12 [monodansylcadaverine]
- effect on TLR signaling [6]: significant inhibitory effects on TLR signaling
- cell toxicity [7]: distinct cell toxicity

Compound: PAM3CSK4
- effect on TNF-α and IL-6 release (stimulation) [8]: significantly increased

Compound: lipopolysaccharide [LPS]
- effect on TNF-α and IL-6 release (stimulation) [9]: significantly increased
